Source: PubChem BioAssay AID493130 (Broad Institute, 2011)
Records with an inconclusive call do not appear. The source made the active and inactive calls.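 The calls were made as follows: active = signal-lowering compounds whose fitted half-maximal concentration is at most ten times their highest tested dose; inconclusive = flat fit between -30 and -70%, or poor fit; inactive = flat within 30%, signal rising, or potency beyond limit.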

Target: POS-1 (Caenorhabditis elegans) binding to mex-3 RNA
Assay: inhibitors of POS-1/mex-3 RNA binding, dose response, counter-screen for MEX-5 RNA-binding inhibitor project, biochemical, fluorescence polarization, cherry-picked samples, set 2 (AID 493130);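 also: POS-1 as maltose binding protein fusion made in E. coli with FITC RNA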
Conditions: POS-1/mex-3 RNA fluorescence polarization, 1 h; for activity change, negative = inhibition: at 10 µM (top of the series)

Compound | activity change, negative = inhibition | AC50
COc1ccc(/C=C/C(=O)N/C(=C\c2ccco2)C(=O)NCCc2nc3ccccc3[nH]2)cc1 | inactive | –
Cc1cc2n(n1)C(c1c[nH]c3ccccc13)Nc1ccccc1-2 (configuration not stated) | inactive | –
COc1ccc(C(CC(=O)N2CCCC2)c2c(OC)cc(OC)c3ccc(=O)oc23)cc1 (configuration not stated) | inactive | –
CCOC(=O)CNc1nc2ccccc2n2c(C)nnc12 | inactive | –
COCCNc1nnc(SCC(=O)NNC(=O)c2ccc([N+](=O)[O-])cc2)s1 | inactive | –
CCCCn1c(O)c(N=Nc2ccccn2)c2ccccc21 | inactive | –
CCOC(=O)C1Cc2ccccc2C(=O)O1 (configuration not stated) | inactive | –
O=C1N=C(N2C=CC(=C3C=CNC=C3)C=C2)/C(=C/N=NC(=O)c2ccccc2)S1 | inactive | –
COc1ccc(OC)c(-n2c(-c3cc(-c4ccco4)[nH]n3)n[nH]c2=S)c1 | inactive | –
O=C(O)CCC(=O)NNc1ncnc2ccccc12 | inactive | –
COc1ccc(/C=N/Nc2nc(=O)[nH]nc2C)cc1[N+](=O)[O-] | inactive | –
CN(C)c1ccc(/C=N/NC(=O)c2cnc3ccccc3c2)cc1 | inactive | –
Cn1c(O)c(N=Nc2ccc(F)cc2)c2ccccc21 | inactive | –
Cc1cc(C)c[n+](-c2[nH]c(=O)sc2/C=N/N=C(\N)[S-])c1 | inactive | –
O=C(NNC(=O)c1ccc(O)c(Cl)c1)c1cccc(S(=O)(=O)N2CCOCC2)c1 | inactive | –
O=C(/C=C/Nc1ccc(S(=O)(=O)Nc2cnc3ccccc3n2)cc1)c1ccccc1 | inactive | –
O=C1N=c2ccccc2=C1c1sc(NS(=O)(=O)c2ccccc2)nc1O | inactive | –
CCn1c(SCc2nc3sc(C(=O)O)c(C)c3c(=O)[nH]2)nc2ccccc21 | – | 10.3 µM
O=C(O)c1cc(-c2ccc(/C=c3\sc4nc5ccc(Br)cc5n4c3=O)o2)ccc1Cl | inactive | –
Cc1cc(O)c(-c2cc(O)c(C)cc2O)cc1O | – | 10.1 µM
CSCC(C)N1CCC(n2nccc2NC(=O)CCc2ccccc2)CC1 (configuration not stated) | inactive | –
Cc1ccc2c(c1)-c1ccccc1S(=O)(=O)N2 | inactive | –
O=c1[nH]cnc2c1C(c1ccc(Cl)cc1)c1c(nc[nH]c1=O)O2 | inactive | –

Compound | activity change, negative = inhibition | AC50
CCOC(=O)c1c(-c2ccccc2)oc2ccc(OCC(=O)NNC(=O)CCC(=O)O)cc12 | inactive | –
Cc1ccc(C)n1-c1sccc1C(=O)O | – | 6.08 µM
Cc1cc(C)c([C@@H]2C[C@H]3CN(C4CCCC4)C(=O)[C@]34CCCN24)c(-n2cccn2)c1 | inactive | –
CCN(CC)c1ccc(/C=N/NC(=O)c2cccc(S(=O)(=O)Nc3ccccc3OC)c2)c(O)c1 | inactive | –
COc1cccc(NC2=C(NCCO)C(=O)c3ccccc3C2=O)c1 | inactive | –
CCOC(=O)C1=C(CSc2nc3c(cc2C#N)CN(C)CC3)OC(N)=C(C#N)C1c1ccncc1 (configuration not stated) | – | 7.33 µM
CC(C)(C)CC(C)(C)NCC(O)COc1ccc2c(c1)CCC2 (configuration not stated) | inactive | –
CCCCN1C=CC(=C2C(=O)c3ccccc3C2=O)C=C1 | inactive | –
Cc1cc(C(=O)NNC(=O)CCCCC(=O)NNC(=O)c2cc(C)[nH]n2)n[nH]1 | – | > 10 µM (inactive)
O=C1OC2(CCCC2)OC(=O)C1=Cc1c[nH]c2ccccc12 | inactive | –
COc1ccc(NS(=O)(=O)c2cccc(C(=O)NNC(=O)c3cc(S(N)(=O)=O)ccc3OC)c2)cc1 | inactive | –
CN(C)c1ccc(/C=C(\C#N)C(=O)c2ccccc2)cc1 | inactive | –
Nc1ccc2nc[nH]c2c1 | inactive | –
Cc1cccc(N=Nc2c(O)[nH]c3ccc(F)cc23)c1 | – | 1.87 µM
COC(=O)C1=C(C)N(c2ccc(C)c(C)c2)/C(=C/c2cccs2)C1=O | inactive | –
COc1ccc2c(c1OC)CN1CCc3cc4c(cc3[C@@H]1[C@@H]2O)OCO4 | inactive | –
Nc1c(C(=O)c2cccs2)sc2nsc(SCCN3CCCCC3)c12 | – | 6.39 µM
O=C1N=c2ccccc2=C1c1sc(=S)n(NC(=O)c2ccccc2)c1O | – | 8.56 µM
Cc1cc(C)c2cc3c(N)c(C(=O)N4CCc5ccccc5C4)sc3nc2c1 | inactive | –
Cc1ccc(NC(=O)/C(C#N)=C(\N)C(Cl)(Cl)Cl)nc1 | – | 6.68 µM
CC(=O)Nc1cccc(C2=CC(c3ccco3)n3ncnc3N2)c1 (configuration not stated) | – | 5.81 µM
CC(C)=CCc1c(O)cc(O)c2c(=O)c(O[C@@H]3O[C@@H](C)[C@H](O)[C@@H](O)[C@H]3O)c(-c3ccc(O)cc3)oc12 | inactive | –
COc1ccc(Cn2c(O)c(/C=N/NC(=O)c3ccccc3O)c(=O)[nH]c2=O)cc1 | – | 6.22 µM

Compound | activity change, negative = inhibition | AC50
O=C(Cc1csc(N2CCOCC2)n1)N/N=C/c1ccc(O)c(O)c1O | inactive | –
CC1=C(C#N)C(=O)N(C2CCS(=O)(=O)C2)C(=O)/C1=C\c1ccco1 (configuration not stated) | – | 3.66 µM
CCN1CCN(Cc2c(C(=O)N/N=C(\C)c3ccc(Cl)c(Cl)c3)nnn2-c2nonc2N)CC1 | inactive | –
Nc1cnccc1C(=O)O | inactive | –
Oc1cccc(NC(=S)N=Nc2c(O)[nH]c3ccc(Br)cc23)c1 | inactive | –
O=S(=O)(O)c1cc(O)c2c(O)c(N=Nc3cc(Cl)ccc3O)c(S(=O)(=O)O)cc2c1 | inactive | –
Cn1c(=O)c(Nc2ccc(Cl)cc2)c2c3c(cccc31)C(=O)c1ccccc1-2 | – | 0.907 µM
Cc1ccc(-c2cc(C(=O)Nc3ccc(S(=O)(=O)Nc4ncccn4)cc3)[nH]n2)c(O)c1C | – | 5.29 µM
C#CCN1C(=O)S/C(=C\c2ccc(N3CCOCC3)cc2C)C1=O | inactive | –
COc1ccc(C2C=C(c3ccc(Br)cc3)Nc3nc(N4C(=O)CCC4=O)nn32)cc1 (configuration not stated) | – | 8.26 µM
O=C(/C=C/c1ccc(O)c(O)c1)OC1C(O)CC(OC(=O)/C=C/c2ccc(O)c(O)c2)(C(=O)O)CC1O (configuration not stated) | inactive | –
CCc1cccc2cc3c(N)c(C(=O)Nc4ccc(S(=O)(=O)N5CCCC5)cc4)sc3nc12 | inactive | –
COC(=O)c1ccccc1-c1ccc(C(c2c(C)[nH][nH]c2=O)c2c(C)[nH][nH]c2=O)o1 | inactive | –
N#Cc1cc2c(=O)n3ccccc3nc2n(CCCN2CCOCC2)c1=O | inactive | –
O=S(=O)(O)c1nc2ccccc2n1Cc1ccc(Cl)cc1Cl | inactive | –
CCOC(=O)c1c(NS(=O)(=O)c2ccccc2)n(CCCOC)c2nc3ccccc3nc12 | inactive | –
CCc1ccc(/C=C2/C(=O)N(CC)C(=S)N2C)s1 | inactive | –
O=c1cc(-c2ccccc2)oc2ccc(O)cc12 | inactive | –
CCCCCOP(=O)(OCCCCC)C1(NS(=O)(=O)c2ccccc2)C=CC(=O)c2ccccc21 (configuration not stated) | inactive | –
COC(=O)C1=COC(C)C2CN3CCc4c([nH]c5ccccc45)C3CC12 (configuration not stated) | – | 7.17 µM
O=C1OC(C(=O)O)Cc2ccccc21 (configuration not stated) | inactive | –
C=CCc1cccc2cc(C(=O)NNC(=O)CC#N)c(=O)oc12 | inactive | –
CCN(CC)c1ccc2nc3ccccc3[n+](CC)c2c1 | inactive | –

Compound | activity change, negative = inhibition | AC50
CCCNc1nc2ccccc2n2c(C)nnc12 | inactive | –
CN1C(=O)/C(=C/c2ccco2)SC1=Nc1cccc(C(=O)O)c1 | inactive | –
Cn1c(CNC(=O)c2ccc(F)cc2)cc2ccccc21 | inactive | –
CSc1ccc(C(c2c(C(=O)O)[nH]c3ccccc23)c2c(C(=O)O)[nH]c3ccccc23)cc1 | inactive | –
COc1ccc(-c2csc(Nc3ccc(S(N)(=O)=O)cc3)n2)cc1OC | inactive | –
O=[As](O)(O)c1ccc(N=Nc2ccc(O)cc2)cc1 | inactive | –
CCc1ccc[n+](-c2[nH]c(=O)sc2/C=N/NC([S-])=Nc2ccccc2)c1 | – | 2.54 µM
O=c1[nH]cnc2c1C(c1ccccc1[N+](=O)[O-])c1c(nc[nH]c1=O)O2 | inactive | –
COc1c(O)ccc(/C=C(\C#N)c2nc3ccccc3[nH]2)c1[N+](=O)[O-] | inactive | –
Cc1nc2c3ccccc3nc(NNC(=O)CCC(=O)N3CCC(C)CC3)n2n1 | inactive | –
O=C(C1=NN(c2ccccc2)C2C(=O)N(c3ccccc3)C(=O)C12)c1ccccc1 (configuration not stated) | inactive | –
CC1=C/C(=C(/c2cc(C)c(O)c(Br)c2)c2ccccc2S(=O)(=O)O)C=C(Br)C1=O | inactive | –
CC1=Nc2cccc3cccc(c23)N1C | inactive | –
COc1ccc(-c2onc3ccc(C(C)=O)cc23)cc1 | – | < 0.08 µM
Cc1ccc(-c2cc(C(=O)O)c3cc(Br)ccc3n2)o1 | inactive | –
Cc1cc(C(=O)N/N=C/c2ccc(-c3ccc([N+](=O)[O-])cc3Cl)o2)n[nH]1 | inactive | –
Cc1oc2c(cc(NS(=O)(=O)c3ccc(C(C)C)cc3)c3ccccc32)c1C(=O)O | – | 10.4 µM
O=C1NC(=O)N(Cc2ccccc2)C(=O)/C1=C\c1ccco1 | inactive | –
COc1ccccc1-n1c(C)nc2cc(C(=O)NCc3ccc4c(c3)OCO4)ccc21 | inactive | –
NC(=S)N=Nc1c(O)[nH]c2cc(F)c(F)cc12 | inactive | –
CCOC(=O)/C=c1\s/c(=C\c2ccc(-c3ccccc3)cc2)c(=O)n1CC(=O)NCc1ccc2c(c1)OCO2 | inactive | –
COc1cccc(NC(=O)CSc2nc3ccccc3nc2N2CCOCC2)c1 | inactive | –
COc1cc(C(=O)NC(=S)NNC(=O)c2cnccn2)cc(OC)c1OC | inactive | –
